# According to PubChem BioAssay AID1963970 (Molecular Pharmacology Branch, DTP, NCI, 2024):
# Tested on: 931267-113-T-J1-PDC multicell spheroid viability
# Assay: Anticancer human tumor 931267-113-T-J1-PDC patient-derived colon adenocarcinoma cell line growth inhibition [PI3K]
# Details: for viability, T/C: stronger effect = lower value
# Method in brief: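 Stroma-containing spheroids: tumor line, pooled-donor HUVEC, hMSC. Treatments: targeted agents with PI3K inhibitors. Dosing: clinically relevant, half-log spacing, 10 microM ceiling without known Cmax. Read-out: cell viability.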
# [1] = curve of first compound, second compound 0.0316 µM
# [2] = curve of first compound, second compound 0.1 µM
# [3] = curve of first compound, second compound 0.316 µM
# [4] = curve of first compound, second compound 1 µM
# [5] = second compound 0.0316 µM, first compound 0.0316 µM
# [6] = second compound 0.0316 µM, first compound 0.1 µM
# [7] = second compound 0.0316 µM, first compound 0.316 µM
# [8] = second compound 0.0316 µM, first compound 1 µM
# [9] = second compound 0.0316 µM, first compound 3.16 µM
# [10] = second compound 0.0316 µM, first compound 10 µM
# [11] = second compound 0.1 µM, first compound 0.0316 µM
# [12] = second compound 0.1 µM, first compound 0.1 µM
# [13] = second compound 0.1 µM, first compound 0.316 µM
# [14] = second compound 0.1 µM, first compound 1 µM
# [15] = second compound 0.1 µM, first compound 3.16 µM
# [16] = second compound 0.1 µM, first compound 10 µM
# [17] = second compound 0.316 µM, first compound 0.0316 µM
# [18] = second compound 0.316 µM, first compound 0.1 µM
# [19] = second compound 0.316 µM, first compound 0.316 µM
# [20] = second compound 0.316 µM, first compound 1 µM
# [21] = second compound 0.316 µM, first compound 3.16 µM
# [22] = second compound 0.316 µM, first compound 10 µM
# [23] = second compound 1 µM, first compound 0.0316 µM
# [24] = second compound 1 µM, first compound 0.1 µM
# [25] = second compound 1 µM, first compound 0.316 µM
# [26] = second compound 1 µM, first compound 1 µM
# [27] = second compound 1 µM, first compound 3.16 µM
# [28] = second compound 1 µM, first compound 10 µM
# 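Also: viability read 7 days after compound addition.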
structure (smiles),measurement,setting,value
Cn1ncc(Cl)c1-c1cc(C(=O)NC(CN)Cc2cccc(F)c2)sc1Cl (stereo unspecified),"viability, T/C",compound 0.0316 µM,105% [middle of 4 runs]
same,"viability, T/C",compound 0.1 µM,98.2% [middle of 4 runs]
same,"viability, T/C",compound 0.316 µM,96.1% [middle of 4 runs]
same,"viability, T/C",compound 1 µM,87.7% [middle of 4 runs]
same,"viability, T/C",compound 3.16 µM,77.1% [middle of 4 runs]
same,"viability, T/C",compound 10 µM,39.5% [middle of 4 runs]
same,IC50,curve of compound,7.22 µM [middle of 4 runs]
CNC(=O)c1ccc(N2C(=S)N(c3ccc(C#N)c(C(F)(F)F)c3)C(=O)C2(C)C)cc1F + CC(Nc1ccc2c(c1)OCCn1cc(N3C(=O)OCC3C(F)F)nc1-2)C(N)=O,IC50,"curve of first compound, second compound 0.00316 µM",> 10 µM
same,IC50,"curve of first compound, second compound 0.01 µM",> 10 µM
same,IC50,[1],> 10 µM
same,IC50,[2],> 10 µM
same,IC50,[3],> 10 µM
same,IC50,[4],> 10 µM
same,"viability, T/C","second compound 0.00316 µM, first compound 0.0316 µM",99%
same,"viability, T/C","second compound 0.00316 µM, first compound 0.1 µM",102%
same,"viability, T/C","second compound 0.00316 µM, first compound 0.316 µM",85.9%
same,"viability, T/C","second compound 0.00316 µM, first compound 1 µM",111%
same,"viability, T/C","second compound 0.00316 µM, first compound 3.16 µM",119%
same,"viability, T/C","second compound 0.00316 µM, first compound 10 µM",106%
same,"viability, T/C","second compound 0.01 µM, first compound 0.0316 µM",107%
same,"viability, T/C","second compound 0.01 µM, first compound 0.1 µM",93.2%
same,"viability, T/C","second compound 0.01 µM, first compound 0.316 µM",107%
same,"viability, T/C","second compound 0.01 µM, first compound 1 µM",106%
same,"viability, T/C","second compound 0.01 µM, first compound 3.16 µM",99.8%
same,"viability, T/C","second compound 0.01 µM, first compound 10 µM",109%
same,"viability, T/C",[5],97.2%
same,"viability, T/C",[6],90.2%
same,"viability, T/C",[7],96.4%
same,"viability, T/C",[8],90.1%
same,"viability, T/C",[9],95.1%
same,"viability, T/C",[10],87.6%
same,"viability, T/C",[11],98.4%
same,"viability, T/C",[12],88.5%
same,"viability, T/C",[13],92.2%
same,"viability, T/C",[14],81.9%
same,"viability, T/C",[15],91.9%
same,"viability, T/C",[16],77.6%
same,"viability, T/C",[17],82%
same,"viability, T/C",[18],78.9%
same,"viability, T/C",[19],77%
same,"viability, T/C",[20],76.1%
same,"viability, T/C",[21],79.8%
same,"viability, T/C",[22],70%
same,"viability, T/C",[23],76.3%
same,"viability, T/C",[24],67.9%
same,"viability, T/C",[25],75.5%
same,"viability, T/C",[26],70%
same,"viability, T/C",[27],71.2%
same,"viability, T/C",[28],54.7%
Cn1ncc(Cl)c1-c1cc(C(=O)NC(CN)Cc2cccc(F)c2)sc1Cl (stereo unspecified) + Cc1nc(NC(=O)N2CCCC2C(N)=O)sc1-c1ccnc(C(C)(C)C(F)(F)F)c1,IC50,[1],6.31 µM
same,IC50,[2],5.39 µM
same,IC50,[3],5.52 µM
same,IC50,[4],4.31 µM
same,IC50,"curve of first compound, second compound 3.16 µM",4.15 µM
same,IC50,"curve of first compound, second compound 10 µM",2.63 µM
same,"viability, T/C",[5],97.3%
same,"viability, T/C",[6],89%
same,"viability, T/C",[7],88.7%
same,"viability, T/C",[8],73.6%
same,"viability, T/C",[9],79.7%
same,"viability, T/C",[10],33.6%
same,"viability, T/C",[11],101%
same,"viability, T/C",[12],86%
same,"viability, T/C",[13],91.4%
same,"viability, T/C",[14],85%
same,"viability, T/C",[15],68.3%
same,"viability, T/C",[16],29.4%
same,"viability, T/C",[17],89.3%
same,"viability, T/C",[18],94%
same,"viability, T/C",[19],83.2%
same,"viability, T/C",[20],85.9%
same,"viability, T/C",[21],68.2%
same,"viability, T/C",[22],30.2%
same,"viability, T/C",[23],84.3%
same,"viability, T/C",[24],84.7%
same,"viability, T/C",[25],77%
same,"viability, T/C",[26],68.7%
same,"viability, T/C",[27],59.9%
same,"viability, T/C",[28],30.1%
same,"viability, T/C","second compound 3.16 µM, first compound 0.0316 µM",73.6%
same,"viability, T/C","second compound 3.16 µM, first compound 0.1 µM",61.7%
same,"viability, T/C","second compound 3.16 µM, first compound 0.316 µM",66.9%
same,"viability, T/C","second compound 3.16 µM, first compound 1 µM",63.8%
same,"viability, T/C","second compound 3.16 µM, first compound 3.16 µM",58.8%
same,"viability, T/C","second compound 3.16 µM, first compound 10 µM",23.5%
same,"viability, T/C","second compound 10 µM, first compound 0.0316 µM",69.9%
same,"viability, T/C","second compound 10 µM, first compound 0.1 µM",61.6%
same,"viability, T/C","second compound 10 µM, first compound 0.316 µM",58.7%
same,"viability, T/C","second compound 10 µM, first compound 1 µM",60.5%
same,"viability, T/C","second compound 10 µM, first compound 3.16 µM",48.9%
same,"viability, T/C","second compound 10 µM, first compound 10 µM",21.9%
